Experimental data: the supplement of paper PMC11208160

Assay: recombinant barcode read abundance after kanamycin selection (control-corrected) (log10(CPM+1)); higher = more efficient recombination; sequences stand for … in AGTGCAGAGAAAATCGGCCAGTTTTCTCTGCCTGCAGTCCGCATGCCGT…AGATTTATGCAGCGGACTGCCTTTCTCCCAAAGTGATAAACCGGACAGTATCATGGACCGGTTTTCCCGGTAATCCGTATTTGCAAGGTTGGTTTCACT; site = the 11-nt target
In short: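 Targets and IS621 bridge RNA target-binding loops were paired in oligos, each with a promoter, a barcode and the J23119-driven first 104 bridge RNA bases. A vector carrying the remaining 73 bp and a T7-inducible recombinase received these by Gibson cloning, and the pool was co-electroporated into E. coli with a donor plasmid. Duplicate plates contained chloramphenicol/ampicillin LB agar (control) or chloramphenicol/ampicillin/kanamycin with 0.1 mM IPTG. Recombination efficiency comes from averaged, control-corrected counts per million of recombinant-junction barcodes, reported as log10(CPM+1).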
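Further: IS621 recombinase and bridge RNA in Escherichia coli cells.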

Sequence | recombinant barcode read abundance (log10)
CGCGGGTCTTGGGTTCTAACCTGTTGCTT (site CGCGAATCTAA) | 0.236
CGCGGGTCTTGGGTTCTAACCTGTTGCTT (site CGCGGGTCTAA) | 0.88
CGCGTTCCTTGGGTTCTAACCTGTTGCCT (site CGCGATCCTAG) | 0.262
CGCGTTCCTTGGGTTCTAACCTGTTGCCT (site CGCGCTCCTAG) | 0.608
CGCGTTCCTTGGGTTCTAACCTGTTGCCT (site CGCGGTCCTAG) | 0.542
CGCGTTCCTTGGGTTCTAACCTGTTGCCT (site CGCGTTCCTAG) | 0.197
CGCTGACCTTGGGTTCTAACCTGTTGCTT (site CGCTGACCTAA) | 0.0663
CGCTGACCTTGGGTTCTAACCTGTTGCTT (site CGCTGCCCTAA) | 0.208
CGCTGACCTTGGGTTCTAACCTGTTGCTT (site CGCTGGCCTAA) | 0.116
CGCTGACCTTGGGTTCTAACCTGTTGCTT (site CGCTGTCCTAA) | 0.231
CGCTGGTCTTGGGTTCTAACCTGTTGCCT (site CGCTAGTCTAG) | 0.309
CGCTGGTCTTGGGTTCTAACCTGTTGCCT (site CGCTCGTCTAG) | 0.145
CGCTGGTCTTGGGTTCTAACCTGTTGCCT (site CGCTGGTCTAG) | 0.0358
CGCTGGTCTTGGGTTCTAACCTGTTGCCT (site CGCTTGTCTAG) | 0.111
CGCTTGTCTTGGGTTCTAACCTGTTGCTT (site CACTTGACTAA) | 0.0517
CGCTTGTCTTGGGTTCTAACCTGTTGCTT (site CGCTTGTCTAA) | 0.0711
CGGAACTCTTGGGTTCTAACCTGTTGCCT (site AGGAACTCTAG) | 0.274
CGGAACTCTTGGGTTCTAACCTGTTGCCT (site CGGAACTCTAG) | 1.85
CGGAATCCTTGGGTTCTAACCTGTTGCCT (site CGGAATCCTAA) | 0.198
CGGAATCCTTGGGTTCTAACCTGTTGCCT (site CGGAATCCTAC) | 0.00785
CGGAATCCTTGGGTTCTAACCTGTTGCCT (site CGGAATCCTAG) | 0.864
CGGAATCCTTGGGTTCTAACCTGTTGCCT (site CGGAATCCTAT) | 0.0895
CGGAATTCTTGGGTTCTAACCTGTTGCCT (site CGGAATTCTAG) | 1.17
CGGAATTCTTGGGTTCTAACCTGTTGCCT (site CGTTATTCTAG) | 0.743
CGGACGGCTTGGGTTCTAACCTGTTGCCT (site CGGACGACTAG) | 0.376
CGGACGGCTTGGGTTCTAACCTGTTGCCT (site CGGACGCCTAG) | 0.285

Sequence | recombinant barcode read abundance (log10)
CGGACGGCTTGGGTTCTAACCTGTTGCCT (site CGGACGGCTAG) | 0.215
CGGACGGCTTGGGTTCTAACCTGTTGCCT (site CGGACGTCTAG) | 0.271
CGGACGTCTTGGGTTCTAACCTGTTGCCT (site CGGACGACTAG) | 0.12
CGGACGTCTTGGGTTCTAACCTGTTGCCT (site CGGACGCCTAG) | 0.0491
CGGACGTCTTGGGTTCTAACCTGTTGCCT (site CGGACGGCTAG) | 0.101
CGGACGTCTTGGGTTCTAACCTGTTGCCT (site CGGACGTCTAG) | 1.45
CGGAGCCCTTGGGTTCTAACCTGTTGCAG (site CGGAGCCCTCT) | 2.06
CGGAGCCCTTGGGTTCTAACCTGTTGCAG (site CTGAGCCCTAT) | 0.143
CGGCACACTTGGGTTCTAACCTGTTGCCT (site CGACACACTAG) | 0.239
CGGCACACTTGGGTTCTAACCTGTTGCCT (site CGCCACACTAG) | 0.0516
CGGCACACTTGGGTTCTAACCTGTTGCCT (site CGGCACACTAG) | 0.761
CGGCACACTTGGGTTCTAACCTGTTGCCT (site CGTCACACTAG) | 0.00935
CGGCACACTTGGGTTCTAACCTGTTGCTT (site CGGCACACTAA) | 0.778
CGGCACACTTGGGTTCTAACCTGTTGCTT (site CGGCTCACTTA) | 0.129
CGGCGTGCTTGGGTTCTAACCTGTTGCCT (site CAGCGTGCTAG) | 0.555
CGGCGTGCTTGGGTTCTAACCTGTTGCCT (site CCGCGTGCTAG) | 0.34
CGGCGTGCTTGGGTTCTAACCTGTTGCCT (site CGGCGTGCTAG) | 1.99
CGGCGTGCTTGGGTTCTAACCTGTTGCCT (site CTGCGTGCTAG) | 0.161
CGGCTACCTTGGGTTCTAACCTGTTGCGG (site CGGCTACCTCC) | 1.29
CGGCTACCTTGGGTTCTAACCTGTTGCGG (site GACGGCACTAG) | 0.0111
CGGCTGCCTTGGGTTCTAACCTGTTGCGG (site CGGCTGCCTCC) | 2.57
CGGCTGCCTTGGGTTCTAACCTGTTGCGG (site GTATCCGCTTG) | 0.446
CGGCTTCCTTGGGTTCTAACCTGTTGCGT (site CAACTTCCTAC) | 0.117
CGGCTTCCTTGGGTTCTAACCTGTTGCGT (site CGGCTTCCTAC) | 1.24
CGGGACACTTGGGTTCTAACCTGTTGCGG (site CGGAACACTCC) | 2.07
CGGGACACTTGGGTTCTAACCTGTTGCGG (site CGGCACACTCC) | 0.143

Sequence | recombinant barcode read abundance (log10)
CGGGACACTTGGGTTCTAACCTGTTGCGG (site CGGGACACTCC) | 2.82
CGGGACACTTGGGTTCTAACCTGTTGCGG (site CGGTACACTCC) | 0.867
CGGGCTACTTGGGTTCTAACCTGTTGCCA (site CGGGCTACTTG) | 0.334
CGGGCTACTTGGGTTCTAACCTGTTGCCA (site TCCTAATCTAA) | 0.00664
CGGGGAGCTTGGGTTCTAACCTGTTGCCG (site CGGGAAGCTAG) | 0.427
CGGGGAGCTTGGGTTCTAACCTGTTGCCG (site CGGGGAGCTCG) | 0.761
CGGGGCACTTGGGTTCTAACCTGTTGCCT (site CGGGGCACTAG) | 0.606
CGGGGCACTTGGGTTCTAACCTGTTGCCT (site CTGGGCACTAG) | 0.18
CGGGGTTCTTGGGTTCTAACCTGTTGCCT (site CAGGGTTCTAG) | 0.321
CGGGGTTCTTGGGTTCTAACCTGTTGCCT (site CCGGGTTCTAG) | 0.167
CGGGGTTCTTGGGTTCTAACCTGTTGCCT (site CGGGGTTCTAG) | 2.43
CGGGGTTCTTGGGTTCTAACCTGTTGCCT (site CTGGGTTCTAG) | 0.0823
CGGGTAACTTGGGTTCTAACCTGTTGCCT (site CGGGTAACTAG) | 0.0693
CGGGTAACTTGGGTTCTAACCTGTTGCCT (site CTGGAAACTAG) | 0.0897
CGGTAATCTTGGGTTCTAACCTGTTGCTT (site ACGTAATCTAA) | 0.0734
CGGTAATCTTGGGTTCTAACCTGTTGCTT (site CGGTAATCTAA) | 0.161
CGGTACACTTGGGTTCTAACCTGTTGCGG (site CGGAACACTCC) | 0.862
CGGTACACTTGGGTTCTAACCTGTTGCGG (site CGGCACACTCC) | 2.48
CGGTACACTTGGGTTCTAACCTGTTGCGG (site CGGGACACTCC) | 0.78
CGGTACACTTGGGTTCTAACCTGTTGCGG (site CGGTACACTCC) | 3.14
CGGTAGTCTTGGGTTCTAACCTGTTGCTG (site CGGTAGTCTAA) | 0.0345
CGGTAGTCTTGGGTTCTAACCTGTTGCTG (site CGGTAGTCTCA) | 1.08
CGGTGAACTTGGGTTCTAACCTGTTGCCT (site CAGTGAACTAG) | 0.109
CGGTGAACTTGGGTTCTAACCTGTTGCCT (site CCGTGAACTAG) | 0.148
CGGTGAACTTGGGTTCTAACCTGTTGCCT (site CGGTGAACTAG) | 1.16
